We go through 1 compound from US20220305052A1, “METERED DOSE FOR DISORDERS IN OR AROUND THE EYE” (Azura Ophthalmics Ltd., priority 2019, published 2022).

Series [1] concerns lower eyelid of the rabbits. The settings on record: rabbit, in vivo. Here is the method:
The composition is prepared by the combination of selenium disulfide (SeS2) in combination with Petrolatum base (and in the absence of surface acting agents). Compositions comprising various concentrations of selenium disulfide are prepared, such as 0.1 wt. %, 0.5 wt. %, 1 wt. %, 1.5 wt. %, 2 wt. %, and 2.5 wt. %.
Various compositions prepared as described above are administered to the eye or eyelid (e.g., margin thereof) of albino rabbits. Various compositions are administered to distinct cohorts using various treatment protocols, such as based on frequency of administration (e.g., once daily, twice daily, every other day, and once weekly) and volume of administration (e.g., <25 μL or >25 μL per administration). Compositions lacking selenium disulfide are administered to a separate cohort to establish a control.
Albino rabbits are evaluated, and an accurate volume of the composition is ejected from a device (e.g., micropipette) and is delivered to the lower eyelid of the rabbits (FIG. 2). […] In one example, the volume is ˜25 μL (equivalent to 20 mg in weight). The rabbits are examined daily.

The subject of series [2] is lower eyelid of the right eye. Here is the method: The eye was treated with lubricants and local NSAID, and the keratitis resolved within 48 hours.
Series [3] relates to lower eyelid. The settings on record: rabbit, in vivo. The source says: On a subsequent study to Example 6, concentrations ranging from 0.5 wt. % to 2.5 wt. % were used on New-Zealand rabbits, once daily to twice weekly for 28 days.
The conditions of series [4]: 5 μL, twice-weekly or once-daily, 3 months.
In series [5] the test system is seborrheic blepharitis patients. The settings on record: cited from earlier work.
The subject of series [6] is rabbit dermis. The settings on record: in vivo; cited from earlier work.

Like-named read-outs stand apart in the source and are kept apart here.

Consider `S=[Se]=S` [SeS2, selenium disulfide], for which, in series [1], the “animals with corneal staining” value is 5/6; the “clinical or microscopic findings” value was “no clinical or microscopic findings”; the “signs of keratitis, including red and swollen eyelids” value is on record as “all animals showed signs of keratitis”. For the same compound, the “time until pain was reported” value in series [2] (2.5 wt. % SeS2 with petrolatum, 25 μL (20 mg), one healthy person) is on record as “About 4 hours”. The “finding on clinical examination” value in series [2] (2.5 wt. % SeS2 with petrolatum, 25 μL (20 mg), multiple punctate over the center exposed part of the cornea) was “keratitis was observed”. Besides, in series [2] (2.5 wt. %, 25 μL, eye treated with lubricants and local NSAID), the “time to resolution of keratitis” value was not above 48 h. Besides, the “ophthalmic observations compared with Example 6” value in series [3] is reported as “safer”. Besides, the “safety and tolerability (independent Data Review Committee)” value (“safety and tolerability” below) in series [4] (0.1 wt. %, nine patients) was “safe and well tolerated”. In series [4] (0.5 wt. %, ten patients), the “safety and tolerability” value was “safe and well tolerated”. The “safety and tolerability” value in series [4] (1 wt. %, nine patients) is “safe and well tolerated”. In addition, in series [5] (0.5 weight percent ointment (Abbott), all patients complained of burning of the conjunctiva (Rychener)), the “tolerability of ointment on the lids” value is “too strong”. Also, in series [5] (human, in vivo), the epithelial keratitis is reported as 6 cases; the “epithelial keratitis persisting as long as a week” value was 1 cases; the “epithelial keratitis persisting for a matter of days” value is 2 cases; the “epithelial keratitis, transient” value was 4 cases. In addition, in series [5] (human, in vivo), the “keratitis, conjunctivitis with erythematous and swollen lids” value is listed as “Two”; the “patients developing moderately severe conjunctivitis” value is given as 1%; the “side effect across the studies” value is on record as “self-limiting keratitis”. For the same compound, in series [6], the dermal irritation result was “did not appear to be irritant to rabbit dermis”.
